Values quoted from earlier work as cited in US20260217893A1, “ACID-BLOCKED PYRROLIDINE CATALYSTS FOR POLYURETHANE FOAM” (Huntsman Petrochemical LLC, priority 2019, published 2026).

Conditions: refs 2-5: CRC Handbook, U.S. Pat. No. 9,051,442, J. Org. Chem. 1961, J. Chem. Eng. Data 2016

**Q.** With `CN(C)CCN(C)CCO` [JEFFCAT ® Z-110, N,N,N-trimethylaminoethyl-ethanolamine] as the molecule, how does the pKa read?
**A.** 9.18

**Q.** For `CN(C)CCOCCO` [JEFFCAT ® ZR-70, 2-(2-dimethylaminoethoxy) ethanol], which pKa is on record?
**A.** 9.1

**Q.** With `CN(C)CCN(C)CCN(C)C` [PMDETA, pentamethyldiethylenetriamine] as the molecule, how does the pKa read?
**A.** 9.1

**Q.** Which pKa does the source give for `CN(C)C1CCCCC1` [dimethylcyclohexylamine, N,N-dimethylcyclohexylamine] here?
**A.** 10.1
